{"source": "patent US11985976B2", "about": "“Mixture of mectins and pyrethroids and uses thereof” (Valent BioSciences LLC, priority 2020, dated 2024)", "key": {"[1]": {"tested_on": "Permethrin Susceptible A. aegypti", "experiment": "Wind tunnel bioassay, adult mosquitoes (Example 1)", "format": "in vivo", "procedure": "(§1) In this bioassay, a wind tunnel bioassay was performed in New Mexico in July 2017. Aedes aegypti that were known to be resistant (single knockdown resistance (“KDR”) mutation) and susceptible to permethrin were used in the studies. The following solutions were applied to adult A. aegypti mosquitoes: 1) 1.5% abamectin; 2) 1.5% ivermectin; 3) 2% fenpropathrin; 4) a mixture of 2% fenpropathrin and 1.5% abamectin; 5) a mixture of 2% fenpropathrin and 1.5% abamectin; 6) a mixture of 2% fenpropathrin and 1.5% ivermectin; and 7) a mixture of 2% fenpropathrin and 1.5% ivermectin.\n(§2) To determine if the mixtures provided unexpected results, the observed combined efficacy (“OCE”) was divided by the expected combined efficacy (“ECE”) wherein the expected ECE is calculated by the Abbott method: ECE=A+B−(AB/100), wherein ECE is the expected combined efficacy and in which A and B are the percent control given by the single active ingredients. If the ratio between the OCE of the mixture and the ECE of the mixture is greater than 1, then greater than expected interactions are present in the mixture. (Gisi, Synergistic Interaction of Fungicides in Mixtures, The American Phytopathological Society, 86:11, 1273-1279, 1996)."}, "[2]": {"tested_on": "Permethrin Resistant A. aegypti (single KDR mutation)", "format": "in vivo, Aedes aegypti", "procedure": "as §1, §2"}, "[3]": {"tested_on": "Permethrin Susceptible C. quinquefasciatus", "experiment": "Wind tunnel bioassay, adult mosquitoes (Example 5)", "format": "in vivo", "procedure": "(§3) If the ratio between the OCE of the mixture and the ECE of the mixture is greater than 1, then greater than expected interactions are present in the mixture. (Gisi, Synergistic Interaction of Fungicides in Mixtures, The American Phytopathological Society, 86:11, 1273-1279, 1996).\n(§4) In this bioassay, a wind tunnel bioassay was performed in New Mexico in March 2020. C. quinquefasciatus that were known to be resistant and susceptible to permethrin were used in the studies. The following solutions were applied to adult C. quinquefasciatus mosquitoes: 1) 1.5% abamectin; 2) 1.5% ivermectin; 3) 5% pyrethrum; 4) a mixture of 5% pyrethrum and 1.5% abamectin; and 5) a mixture of 5% pyrethrum and 1.5% ivermectin. Percent mortality was recorded at 15 minutes, 1 hour, 24 hours and 48 hours."}, "[4]": {"tested_on": "Permethrin Resistant C. quinquefasciatus", "format": "in vivo", "procedure": "as §3, §4"}, "[5]": {"tested_on": "Permethrin Susceptible C. quinquefasciatus", "experiment": "Wind tunnel bioassay, adult mosquitoes (Example 4)", "format": "in vivo, Culex quinquefasciatus", "procedure": "In this bioassay, a wind tunnel bioassay was performed in New Mexico in March 2020. C. quinquefasciatus that were known to be resistant and susceptible to permethrin were used in the studies. […] Percent mortality was recorded at 15 minutes, 1 hour, 24 hours and 48 hours."}, "[6]": {"tested_on": "Permethrin Resistant C. quinquefasciatus", "experiment": "Wind tunnel bioassay, adult mosquitoes (Example 4)", "format": "in vivo, Culex quinquefasciatus", "procedure": "In this bioassay, a wind tunnel bioassay was performed in New Mexico in March 2020. C. quinquefasciatus that were known to be resistant and susceptible to permethrin were used in the studies. The following solutions were applied to adult C. quinquefasciatus mosquitoes: 1) 5% permethrin; 2) a mixture of 5% permethrin and, 1.5% abamectin; 3) a mixture of 5% permethrin, 1.5% abamectin and 1% C8, 9, 10 fatty acids; 4) a mixture of 5% permethrin and 1.5% ivermectin; and 5) a mixture of 5% permethrin, 1.5% ivermectin and 1% C8, 9, 10 fatty acids. Percent mortality was recorded at 15 minutes, 1 hour, 24 hours and 48 hours."}}, "note": "Where “and” joins values, the source holds several entries; their conditions need not be identical. Equal entries are not always repeated. Where two headings read alike, the source gives them in different places.", "data": [{"molecule": "ivermectin [1.5% ivermectin]", "values": [{"measurement": "% Mortality", "setting": "[1]", "result": 100, "unit": "%"}, {"measurement": "% Mortality", "setting": "[2]", "result": "64% and 62.9%"}, {"measurement": "% Mortality", "setting": "[3]; 1 Hr", "result": 62.5, "unit": "%"}, {"measurement": "% Mortality", "setting": "[3]; 15 Min", "result": 5, "unit": "%"}, {"measurement": "% Mortality", "setting": "[3]; 24 Hr", "result": 100, "unit": "%"}, {"measurement": "% Mortality", "setting": "[3]; 48 Hr", "result": 100, "unit": "%"}, {"measurement": "% Mortality", "setting": "[4]; Example 5, 1 Hr", "result": 42.5, "unit": "%"}, {"measurement": "% Mortality", "setting": "[4]; Example 5, 15 Min", "result": 0, "unit": "%"}, {"measurement": "% Mortality", "setting": "[4]; Example 5, 24 Hr", "result": 88.8, "unit": "%"}, {"measurement": "% Mortality", "setting": "[4]; Example 5, 48 Hr", "result": 91.3, "unit": "%"}]}, {"molecule": "abamectin [1.5% abamectin]", "values": [{"measurement": "% Mortality", "setting": "[1]", "result": 100, "unit": "%"}, {"measurement": "% Mortality", "setting": "[2]", "result": "91% and 91.3%"}, {"measurement": "% Mortality", "setting": "[3]; 1 Hr", "result": 73.8, "unit": "%"}, {"measurement": "% Mortality", "setting": "[3]; 15 Min", "result": 15, "unit": "%"}, {"measurement": "% Mortality", "setting": "[3]; 24 Hr", "result": 91.3, "unit": "%"}, {"measurement": "% Mortality", "setting": "[3]; 48 Hr", "result": 92.5, "unit": "%"}, {"measurement": "% Mortality", "setting": "[4]; Example 5, 1 Hr", "result": 26.3, "unit": "%"}, {"measurement": "% Mortality", "setting": "[4]; Example 5, 15 Min", "result": 0, "unit": "%"}, {"measurement": "% Mortality", "setting": "[4]; Example 5, 24 Hr", "result": 78.8, "unit": "%"}, {"measurement": "% Mortality", "setting": "[4]; Example 5, 48 Hr", "result": 80, "unit": "%"}]}, {"molecule": "CC1(C)C(C(=O)OC(C#N)c2cccc(Oc3ccccc3)c2)C1(C)C", "note": "(stereo not drawn) [2.0% fenpropathrin, fenpropathrin]", "values": [{"measurement": "% Mortality", "setting": "[1]", "result": 99.6, "unit": "%"}, {"measurement": "% Mortality", "setting": "[2]", "result": "76% and 75.8%"}]}, {"molecule": "CC1(C)C(C=C(Cl)Cl)C1C(=O)OCc1cccc(Oc2ccccc2)c1", "note": "(stereo not drawn) [5% permethrin, permethrin]", "values": [{"measurement": "% Mortality", "setting": "[5]; 1 Hr", "result": 100, "unit": "%"}, {"measurement": "% Mortality", "setting": "[5]; 15 Min", "result": 65, "unit": "%"}, {"measurement": "% Mortality", "setting": "[5]; 24 Hr", "result": 100, "unit": "%"}, {"measurement": "% Mortality", "setting": "[5]; 48 Hr", "result": 100, "unit": "%"}, {"measurement": "% Mortality", "setting": "[6]; 1 Hr", "result": 78.8, "unit": "%"}, {"measurement": "% Mortality", "setting": "[6]; 15 Min", "result": 0, "unit": "%"}, {"measurement": "% Mortality", "setting": "[6]; 24 Hr", "result": 65, "unit": "%"}, {"measurement": "% Mortality", "setting": "[6]; 48 Hr", "result": 66.3, "unit": "%"}]}]}
